Experimental data reported in US11986471B2, “Compounds and methods of use” (Tango Therapeutics, Inc., priority 2018, dated 2024).

Legend:
PRMT5 [1] = target: T1, PRMT5 (Homo sapiens, UniProt O14744); assay: PRMT5 IC50 assay in the presence of SAM as cofactor; format: biochemical
T1 construct: purchased Viva (custom protein)
Method in brief: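 IC50 values were measured against human PRMT5 with SAM, with MTA, or with no cofactor. Ki was derived from IC50 as Ki=IC50/1.5 with SAM and Ki=IC50/13.5 with MTA, and the Ki(SAM)/Ki(MTA) ratio was then taken.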

PRMT5 [2] = target: T1, PRMT5; assay: PRMT5 IC50 assay with no cofactor; format: biochemical; settings: read-out: No Co-factor IC50
Method in brief: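 Potency against PRMT5 is compared across cofactor states, where IC50 equals Ki×1.5 with SAM present and Ki×13.5 with MTA present.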

PRMT5 [3] = target: T1, PRMT5; assay: PRMT5 IC50 assay in the presence of MTA as cofactor; format: biochemical; settings: for IC50: PRMT5, MTA as cofactor; for SAM/MTA Ratio: ratio between Ki in the presence of SAM and Ki in the presence of MTA
Method in brief: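 For the SAM-containing format, dividing IC50 by 1.5 yields Ki; for the MTA-containing format the divisor is 13.5. A third format without cofactor gives IC50 alone.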

HAP1 MTAP-intact = assay: SDMA in-cell western assay, HAP1 MTAP-intact cell line; format: cell-based; settings: Homo sapiens
Method in brief: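 IC50 values come from SDMA in-cell western staining of HAP1 cells. The MTAP-intact line carries endogenous MTAP, while its MTAP-deleted counterpart lacks MTAP entirely. A selectivity ratio of at least 3 fold marks a compound as MTAP-selective.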

HAP1 MTAP-deleted = assay: SDMA in-cell western assay, HAP1 MTAP-deleted cell line; format: cell-based; settings: for IC50: Homo sapiens, HAP1 MTAP-deleted cell line; for MTAP Intact/Deleted Ratio: IC50 ratio HAP1 MTAP-intact / HAP1 MTAP-deleted
Method in brief: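 Readout is cellular SDMA signal by in-cell western, with IC50 values derived from it. The cells are MTAP-null HAP1, matched to an isogenic MTAP-intact HAP1 line.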

T1 sequence (O14744 whole entry): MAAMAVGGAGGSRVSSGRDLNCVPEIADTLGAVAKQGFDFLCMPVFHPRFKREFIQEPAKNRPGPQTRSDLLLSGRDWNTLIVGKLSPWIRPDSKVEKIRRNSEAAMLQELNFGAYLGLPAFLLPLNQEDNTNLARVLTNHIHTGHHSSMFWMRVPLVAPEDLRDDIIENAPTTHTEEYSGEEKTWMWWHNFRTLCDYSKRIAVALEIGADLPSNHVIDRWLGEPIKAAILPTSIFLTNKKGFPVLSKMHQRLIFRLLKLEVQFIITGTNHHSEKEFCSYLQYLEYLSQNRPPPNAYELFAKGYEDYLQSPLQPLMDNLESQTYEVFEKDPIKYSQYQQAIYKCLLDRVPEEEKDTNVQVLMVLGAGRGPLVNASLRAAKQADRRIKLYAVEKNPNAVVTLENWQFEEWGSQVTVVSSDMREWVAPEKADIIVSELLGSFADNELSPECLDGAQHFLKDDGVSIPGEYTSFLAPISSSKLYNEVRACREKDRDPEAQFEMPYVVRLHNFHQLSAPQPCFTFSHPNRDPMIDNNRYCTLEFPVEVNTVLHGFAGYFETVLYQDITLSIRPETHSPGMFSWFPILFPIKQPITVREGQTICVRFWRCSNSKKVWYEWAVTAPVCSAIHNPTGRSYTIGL
T1 sequence (Q9BQA1 whole entry partner): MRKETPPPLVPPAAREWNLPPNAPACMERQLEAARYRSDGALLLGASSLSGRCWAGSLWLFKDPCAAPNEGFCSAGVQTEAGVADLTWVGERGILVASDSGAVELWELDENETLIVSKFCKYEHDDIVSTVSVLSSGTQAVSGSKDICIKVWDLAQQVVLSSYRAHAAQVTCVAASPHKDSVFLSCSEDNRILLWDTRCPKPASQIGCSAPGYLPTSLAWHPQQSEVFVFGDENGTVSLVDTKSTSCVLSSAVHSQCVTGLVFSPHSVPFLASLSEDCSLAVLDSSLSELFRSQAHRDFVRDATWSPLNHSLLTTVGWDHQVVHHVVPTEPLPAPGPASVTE

| IC50 (PRMT5 [1]) [nM] | IC50 (PRMT5 [2]) [nM] | IC50 (PRMT5 [3]) [nM] | IC50 (HAP1 MTAP-intact) [nM] | IC50 (HAP1 MTAP-deleted) [nM] | Compound | SAM/MTA Ratio (PRMT5 [3]) | MTAP Intact/Deleted Ratio (HAP1 MTAP-deleted) |
| --- | --- | --- | --- | --- | --- | --- | --- |
| 50 to 500 | 500 to 5000 | < 50 | 1000 to 10000 | < 1000 | Cc1ncoc1COc1ccc2c(c1)CCN(C[C@@H](O)CNC(=O)c1ccnc(NC3CCN(C(=O)C4CC4)CC3)c1)C2 [Compound 624, (S)-2-((1-(cyclopropanecarbonyl)piperidin-4-yl)amino)-N-(2-hydroxy-3-(6-((4-methyloxazol-5-yl)methoxy)-3,4-dihydroisoquinolin-2(1H)-yl)propyl)isonicotinamide] | A (a Ki ratio greater than or equal to 10 fold between the Ki in the presence of SAM and the Ki in the presence of MTA) | A* (an IC50 ratio greater than or equal to 10 fold between the IC50 in the HAP1 MTAP-intact cell line and the HAP1 MTAP-deleted cell line) |
| 50 to 500 | 500 to 5000 | 50 to 500 | ≥ 10000 | < 1000 | CC(=O)N1CCC(Nc2cc(C(=O)NC[C@H](O)CN3CCc4cc(OCc5ocnc5C)c(F)cc4C3)ccn2)CC1 [Compound 625] | A (a Ki ratio greater than or equal to 10 fold between the Ki in the presence of SAM and the Ki in the presence of MTA) | A* (an IC50 ratio greater than or equal to 10 fold between the IC50 in the HAP1 MTAP-intact cell line and the HAP1 MTAP-deleted cell line) |
| 50 to 500 | 500 to 5000 | < 50 | 1000 to 10000 | < 1000 | CC(=O)N1CCC(Nc2cc(C(=O)NC[C@H](O)CN3CCc4cc(OCc5ocnc5C)ccc4C3)cc(N(C)C3CCC3)n2)CC1 [Compound 628, (S)-2-((1-acetylpiperidin-4-yl)amino)-6-(cyclobutyl(methyl)amino)-N-(2-hydroxy-3-(6-((4-methyloxazol-5-yl)methoxy)-3,4-dihydroisoquinolin-2(1H)-yl)propyl)isonicotinamide] | A (a Ki ratio greater than or equal to 10 fold between the Ki in the presence of SAM and the Ki in the presence of MTA) | B* (an IC50 ratio greater than or equal to 3 fold but lower than 10 fold between the IC50 in the HAP1 MTAP-intact cell line and the HAP1 MTAP-deleted cell line) |
| 50 to 500 | 500 to 5000 | 50 to 500 | 1000 to 10000 | < 1000 | CC(=O)N1CCC(Nc2cc(C(=O)NC[C@H](O)CN3CCc4cc(OCc5ocnc5C)ccc4C3)cc(N(C)C)n2)CC1 [Compound 629, (S)-2-((1-acetylpiperidin-4-yl)amino)-6-(dimethylamino)-N-(2-hydroxy-3-(6-((4-methyloxazol-5-yl)methoxy)-3,4-dihydroisoquinolin-2(1H)-yl)propyl)isonicotinamide] | A (a Ki ratio greater than or equal to 10 fold between the Ki in the presence of SAM and the Ki in the presence of MTA) | A* (an IC50 ratio greater than or equal to 10 fold between the IC50 in the HAP1 MTAP-intact cell line and the HAP1 MTAP-deleted cell line) |
| 50 to 500 | 50 to 500 | < 50 | 1000 to 10000 | 1000 to 10000 | CC(=O)N1CC(Nc2cc(C(=O)NC[C@H](O)CN3CCc4cc(OCc5ocnc5C)ccc4C3)cc(N3CCCCC3)n2)C1 [Compound 634] | A (a Ki ratio greater than or equal to 10 fold between the Ki in the presence of SAM and the Ki in the presence of MTA) | B* (an IC50 ratio greater than or equal to 3 fold but lower than 10 fold between the IC50 in the HAP1 MTAP-intact cell line and the HAP1 MTAP-deleted cell line) |
| 50 to 500 | ≥ 5000 | 50 to 500 | 1000 to 10000 | < 1000 | Cc1ncoc1COc1ccc2c(c1)CCN(C[C@@H](O)CNC(=O)c1cc(NC3CCC3)nc(N(C)C3CCC3)c1)C2 [Compound 635] | A (a Ki ratio greater than or equal to 10 fold between the Ki in the presence of SAM and the Ki in the presence of MTA) | A* (an IC50 ratio greater than or equal to 10 fold between the IC50 in the HAP1 MTAP-intact cell line and the HAP1 MTAP-deleted cell line) |
| 50 to 500 | 500 to 5000 | 50 to 500 | 1000 to 10000 | < 1000 | Cc1ncoc1COc1ccc2c(c1)CCN(C[C@@H](O)CNC(=O)c1cc(NC3CCC3)nc(NC3CCC3)c1)C2 [Compound 636, (S)-2,6-bis(cyclobutylamino)-N-(2-hydroxy-3-(6-((4-methyloxazol-5-yl)methoxy)-3N-dihydroisoquinolin-2(1H)-yl)propyl)isonicotinamide] | A (a Ki ratio greater than or equal to 10 fold between the Ki in the presence of SAM and the Ki in the presence of MTA) | B* (an IC50 ratio greater than or equal to 3 fold but lower than 10 fold between the IC50 in the HAP1 MTAP-intact cell line and the HAP1 MTAP-deleted cell line) |
| 50 to 500 | ≥ 5000 | 50 to 500 | 1000 to 10000 | 1000 to 10000 | CC(=O)N1CCC(Nc2cc(C(=O)NC[C@H](O)CN3CCc4cc(OCc5ocnc5C)ccc4C3)ccn2)C(C)C1 (stereo partly drawn) [Compound 637, 2-((1-acetyl-3-methylpiperidin-4-yl)amino)-N—((S)-2-hydroxy-3-(6-((4-methyloxazol-5-yl)methoxy)-3,4-dihydroisoquinolin-2(1H)-yl)propyl)isonicotinamide] | A (a Ki ratio greater than or equal to 10 fold between the Ki in the presence of SAM and the Ki in the presence of MTA) | B* (an IC50 ratio greater than or equal to 3 fold but lower than 10 fold between the IC50 in the HAP1 MTAP-intact cell line and the HAP1 MTAP-deleted cell line) |
| 50 to 500 | 500 to 5000 | < 50 | 1000 to 10000 | < 1000 | CC(=O)N1CC[C@H](Nc2cc(C(=O)NC[C@H](O)CN3CCc4cc(OCc5ocnc5C)ccc4C3)ccn2)C[C@H]1C [Compound 644, 2-(((2R,4S)-1-acetyl-2-methylpiperidin-4-yl)amino)-N—((S)-2-hydroxy-3-(6-((4-methyloxazol-5-yl)methoxy)-3,4-dihydroisoquinolin-2(1H)-yl)propyl)isonicotinamide] | A (a Ki ratio greater than or equal to 10 fold between the Ki in the presence of SAM and the Ki in the presence of MTA) | A* (an IC50 ratio greater than or equal to 10 fold between the IC50 in the HAP1 MTAP-intact cell line and the HAP1 MTAP-deleted cell line) |
| 50 to 500 | 50 to 500 | < 50 | < 1000 | < 1000 | CC(=O)N1CCC(Nc2cc(C(=O)NC[C@H](O)CN3CCc4cc(OCc5ocnc5C)ccc4C3)nc(N3CCCCC3)n2)CC1 [Compound 647] | A (a Ki ratio greater than or equal to 10 fold between the Ki in the presence of SAM and the Ki in the presence of MTA) | B* (an IC50 ratio greater than or equal to 3 fold but lower than 10 fold between the IC50 in the HAP1 MTAP-intact cell line and the HAP1 MTAP-deleted cell line) |

| Compound | IC50 (PRMT5 [1]) [nM] | IC50 (PRMT5 [2]) [nM] | IC50 (PRMT5 [3]) [nM] | IC50 (HAP1 MTAP-intact) [nM] | IC50 (HAP1 MTAP-deleted) [nM] | SAM/MTA Ratio (PRMT5 [3]) | MTAP Intact/Deleted Ratio (HAP1 MTAP-deleted) |
| --- | --- | --- | --- | --- | --- | --- | --- |
| CC(=O)N1[C@@H]2CC[C@H]1C[C@H](Nc1cc(C(=O)NC[C@H](O)CN3CCc4cc(OCc5ocnc5C)ccc4C3)ccn1)C2 [Compound 645, 2-(((1R,3r,5S)-8-acetyl-8-azabicyclo[3.2.1]octan-3-yl)amino)-N—((S)-2-hydroxy-3-(6-((4-methyloxazol-5-yl)methoxy)-3,4-dihydroisoquinolin-2(1H)-yl)propyl)isonicotinamide] | 50 to 500 | 500 to 5000 | 50 to 500 | ≥ 10000 | < 1000 | A (a Ki ratio greater than or equal to 10 fold between the Ki in the presence of SAM and the Ki in the presence of MTA) | A* (an IC50 ratio greater than or equal to 10 fold between the IC50 in the HAP1 MTAP-intact cell line and the HAP1 MTAP-deleted cell line) |
